# Results taken from US12673961B2 (Agios Pharmaceuticals, Inc., priority 2022, dated 2026).
# Target: T1, human PAH with the R408W mutation (Homo sapiens, UniProt P00439, R408W)
# T1 construct: expressed in transfected cells
# T1 sequence (P00439 1-452 R408W): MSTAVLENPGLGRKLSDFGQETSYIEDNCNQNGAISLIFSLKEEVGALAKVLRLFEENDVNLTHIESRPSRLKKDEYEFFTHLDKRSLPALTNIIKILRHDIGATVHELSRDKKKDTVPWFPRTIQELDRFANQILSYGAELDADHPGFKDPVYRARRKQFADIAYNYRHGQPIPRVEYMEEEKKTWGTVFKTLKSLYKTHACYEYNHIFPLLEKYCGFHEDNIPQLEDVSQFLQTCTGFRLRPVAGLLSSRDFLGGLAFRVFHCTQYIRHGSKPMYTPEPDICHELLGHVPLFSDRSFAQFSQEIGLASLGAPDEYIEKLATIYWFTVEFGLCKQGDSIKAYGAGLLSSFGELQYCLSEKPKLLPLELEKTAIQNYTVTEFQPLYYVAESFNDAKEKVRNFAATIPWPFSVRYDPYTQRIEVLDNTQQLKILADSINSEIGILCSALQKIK
# Experiment: Cell Based Phenylalanine Flux Assay;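 further: Ten-point dose curve from 2-fold serial dilutions, run in duplicate at 0.5% DMSO final, tracer step used 20 µM sepiapterin and 800 µM labeled phenylalanine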
# Details: A375 cells expressing human R408W PAH; 24 hrs compound incubation; 13C-Tyrosine by LC-MS; average where tested multiple times; read-out: AC50
row,SMILES,AC50 [nM]
1,"Cn1nc(C2CC2)nc1C(=O)N1CCc2[nH]cnc2[C@@H]1c1cc2c(Cl)cccn2n1 [Example 1073, (R)-(4-(4-chloropyrazolo [1,5-a]pyridin-2-yl)-6,7-dihydro-1H-imidazo[4,5-c]pyridin-5(4H)-yl)(3-cyclopropyl-1-methyl-1H-1,2,4-triazol-5-yl)methanone]",1000 to 5000
2,"Cc1nc(C(=O)N2CCc3[nH]cnc3[C@H]2c2cc3c(Cl)cccn3n2)n(C)n1 [Example 1074, (S)-(4-(4-chloropyrazolo [1,5-a]pyridin-2-yl)-6,7-dihydro-1H-imidazo[4,5-c]pyridin-5(4H)-yl)(1,3-dimethyl-1H-1,2,4-triazol-5-yl)methanone]",500 to 1000
3,"O=C(c1ocnc1C(F)F)N1CCc2[nH]cnc2[C@H]1c1cc2ccc(C(F)(F)F)cn2n1 [Example 1104, (S)-(4-(difluoromethyl)oxazol-5-yl)(4-(6-(trifluoromethyl)pyrazolo [1,5-a]pyridin-2-yl)-6,7-dihydro-1H-imidazo[4,5-c]pyridin-5(4H)-yl)methanone]",< 500
4,"CC(C)(F)c1nnc(C(=O)N2CCc3[nH]cnc3[C@H]2c2cc3c(Cl)cccn3n2)o1 [Example 1109, (S)-(4-(4-chloropyrazolo [1,5-a]pyridin-2-yl)-6,7-dihydro-1H-imidazo[4,5-c]pyridin-5(4H)-yl)(5-(2-fluoropropan-2-yl)-1,3,4-oxadiazol-2-yl)methanone]",< 500
5,"Cc1ccc2cc([C@@H]3c4nc[nH]c4CCN3C(=O)c3nnc(C(C)(C)C)o3)nn2c1 [Example 1110, (S)-(5-(tert-butyl)-1,3,4-oxadiazol-2-yl)(4-(6-methylpyrazolo[1,5-a]pyridin-2-yl)-6,7-dihydro-1H-imidazo[4,5-c]pyridin-5(4H)-yl)methanone]",500 to 1000
6,"CC(C)(O)c1nc(C(F)F)c(C(=O)N2CCc3[nH]cnc3[C@H]2c2cc3ccc(C(F)(F)F)cn3n2)o1 [Example 1116, (S)-(4-(difluoromethyl)-2-(2-hydroxypropan-2-yl)oxazol-5-yl)(4-(6-(trifluoromethyl)pyrazolo[1,5-a]pyridin-2-yl)-6,7-dihydro-1H-imidazo [4,5-c]pyridin-5(4H)-yl)methanone]",< 500
7,"CC(C)(O)c1nc(C(F)F)c(C(=O)N2CCc3[nH]cnc3[C@@H]2c2cc3ccc(C(F)(F)F)cn3n2)o1 [Example 1117, (R)-(4-(difluoromethyl)-2-(2-hydroxypropan-2-yl)oxazol-5-yl)(4-(6-(trifluoromethyl)pyrazolo[1,5-a]pyridin-2-yl)-6,7-dihydro-1H-imidazo[4,5-c]pyridin-5(4H)-yl)methanone]",> 5000
8,"O=C(c1nnc(-c2ccn(C(F)F)n2)o1)N1CCc2[nH]cnc2[C@H]1c1cc2c(Cl)cccn2n1 [Example 1118, (S)-(4-(4-chloropyrazolo [1,5-a]pyridin-2-yl)-6,7-dihydro-1H-imidazo[4,5-c]pyridin-5(4H)-yl)(5-(1-(difluoromethyl)-1H-pyrazol-3-yl)-1,3,4-oxadiazol-2-yl)methanone]",< 500
9,"CC(C)(C)c1nnc(C(=O)N2CCc3[nH]cnc3[C@@H]2c2cc3ccc(F)cn3n2)o1 [Example 1125, (R)-(5-(tert-butyl)-1,3,4-oxadiazol-2-yl)(4-(6-fluoropyrazolo[1,5-a]pyridin-2-yl)-6,7-dihydro-1H-imidazo[4,5-c]pyridin-5(4H)-yl)methanone]",1000 to 5000
10,"Cn1nc(C(F)F)nc1C(=O)N1CCc2[nH]cnc2[C@@H]1c1cc2ccc(C(F)(F)F)cn2n1 [Example 1127, (R)-(3-(difluoromethyl)-1-methyl-1H-1,2,4-triazol-5-yl)(4-(6-(trifluoromethyl)pyrazolo[1,5-a]pyridin-2-yl)-6,7-dihydro-1H-imidazo [4,5-c]pyridin-5(4H)-yl)methanone]",1000 to 5000
11,"O=C(c1ccnn1C(F)F)N1CCc2[nH]cnc2[C@@H]1c1cc2cc(C(F)(F)F)ccn2n1 [Example 1133, (R)-(1-(difluoromethyl)-1H-pyrazol-5-yl)(4-(5-(trifluoromethyl)pyrazolo [1,5-a]pyridin-2-yl)-6,7-dihydro-1H-imidazo[4,5-c]pyridin-5(4H)-yl)methanone]",1000 to 5000
12,"O=C(c1nnc(C2CC2)o1)N1CCc2[nH]cnc2[C@@H]1c1cc2cccc(Cl)n2n1 [Example 1136, (R)-(4-(7-chloropyrazolo [1,5-a]pyridin-2-yl)-6,7-dihydro-1H-imidazo[4,5-c]pyridin-5(4H)-yl)(5-cyclopropyl-1,3,4-oxadiazol-2-yl)methanone]",1000 to 5000
13,O=C(c1nnc(C2CC2)o1)N1CCc2[nH]cnc2[C@H]1c1cc2cccc(Cl)n2n1 [Example 1137],500 to 1000
14,"O=C(c1ccnn1C(F)F)N1CCc2[nH]cnc2[C@@H]1c1cc2ccc(C(F)(F)F)cn2n1 [Example 1139, (R)-(1-(difluoromethyl)-1H-pyrazol-5-yl)(4-(6-(trifluoromethyl)pyrazolo [1,5-a]pyridin-2-yl)-6,7-dihydro-1H-imidazo[4,5-c]pyridin-5(4H)-yl)methanone]",1000 to 5000
15,"Cc1cccc2cc([C@@H]3c4nc[nH]c4CCN3C(=O)c3oc([C@@H](C)O)nc3C(F)F)nn12 [Example 1164, (4-(difluoromethyl)-2-((R)-1-hydroxyethyl)oxazol-5-yl)((S)-4-(7-methylpyrazolo [1,5-a]pyridin-2-yl)-6,7-dihydro-1H-imidazo[4,5-c]pyridin-5(4H)-yl)methanone]",< 500
16,"Cc1ccc2cc([C@H]3c4nc[nH]c4CCN3C(=O)c3nnc(C(C)(C)F)o3)nn2c1 [Example 1170, (R)-(5-(2-fluoropropan-2-yl)-1,3,4-oxadiazol-2-yl)(4-(6-methylpyrazolo[1,5-a]pyridin-2-yl)-6,7-dihydro-1H-imidazo[4,5-c]pyridin-5(4H)-yl)methanone]",> 5000
17,"Cc1ncoc1C(=O)N1CCc2[nH]cnc2[C@@H]1c1cc2cccc(Cl)n2n1 [Example 1175, (R)-(4-(7-chloropyrazolo [1,5-a]pyridin-2-yl)-6,7-dihydro-1H-imidazo[4,5-c]pyridin-5(4H)-yl)(4-methyloxazol-5-yl)methanone]",1000 to 5000
18,"Cc1ccn2nc([C@H]3c4nc[nH]c4CCN3C(=O)c3cnco3)cc2c1 [Example 1184, (R)-(4-(5-methylpyrazolo [1,5-a]pyridin-2-yl)-6,7-dihydro-1H-imidazo[4,5-c]pyridin-5(4H)-yl)(oxazol-5-yl)methanone]",500 to 1000
19,"Cc1ccn2nc([C@@H]3c4nc[nH]c4CCN3C(=O)c3cnco3)cc2c1 [Example 1185, (S)-(4-(5-methylpyrazolo [1,5-a]pyridin-2-yl)-6,7-dihydro-1H-imidazo[4,5-c]pyridin-5(4H)-yl)(oxazol-5-yl)methanone]",1000 to 5000
20,"Cc1c(-c2nnc(C(=O)N3CCc4[nH]cnc4[C@H]3c3cc4cccc(C)n4n3)o2)cnn1C [Example 1188, (S)-(5-(1,5-dimethyl-1H-pyrazol-4-yl)-1,3,4-oxadiazol-2-yl)(4-(7-methylpyrazolo[1,5-a]pyridin-2-yl)-6,7-dihydro-1H-imidazo[4,5-c]pyridin-5(4H)-yl)methanone]",500 to 1000
21,"Cc1c(-c2nnc(C(=O)N3CCc4[nH]cnc4[C@H]3c3cc4cccc(C(F)(F)F)n4n3)o2)cnn1C [Example 1190, (S)-(5-(1,5-dimethyl-1H-pyrazol-4-yl)-1,3,4-oxadiazol-2-yl)(4-(7-(trifluoromethyl)pyrazolo[1,5-a]pyridin-2-yl)-6,7-dihydro-1H-imidazo [4,5-c]pyridin-5(4H)-yl)methanone]",500 to 1000
22,"C[C@@H](O)c1nc(C(F)F)c(C(=O)N2CCc3[nH]cnc3[C@H]2c2cc3cccc(Cl)n3n2)o1 [Example 1196, ((S)-4-(7-chloropyrazolo [1,5-a]pyridin-2-yl)-6,7-dihydro-1H-imidazo[4,5-c]pyridin-5(4H)-yl)(4-(difluoromethyl)-2-((R)-1-hydroxyethyl)oxazol-5-yl)methanone]",< 500
23,Cc1ncoc1C(=O)N1CCc2[nH]cnc2[C@H]1c1cc2cccc(C(F)(F)F)n2n1 [Example 1198],500 to 1000
24,Cc1ncoc1C(=O)N1CCc2[nH]cnc2[C@@H]1c1cc2cccc(C(F)(F)F)n2n1 [Example 1199],1000 to 5000
25,"COc1cccn2nc([C@H]3c4nc[nH]c4CCN3C(=O)c3nnc(-c4cnn(C)c4C)o3)cc12 [Example 1207, (R)-(5-(1,5-dimethyl-1H-pyrazol-4-yl)-1,3,4-oxadiazol-2-yl)(4-(4-methoxypyrazolo [1,5-a]pyridin-2-yl)-6,7-dihydro-1H-imidazo[4,5-c]pyridin-5(4H)-yl)methanone]",> 5000
26,"Cc1c(-c2nnc(C(=O)N3CCc4[nH]cnc4[C@H]3c3cc4c(Cl)cccn4n3)o2)cnn1C [Example 1214, (S)-(4-(4-chloropyrazolo [1,5-a]pyridin-2-yl)-6,7-dihydro-1H-imidazo[4,5-c]pyridin-5(4H)-yl)(5-(1,5-dimethyl-1H-pyrazol-4-yl)-1,3,4-oxadiazol-2-yl)methanone]",< 500
27,"Cc1cccn2nc([C@@H]3c4nc[nH]c4CCN3C(=O)c3oc(C4(O)CC4)nc3C(F)F)cc12 [Example 1220, (S)-(4-(difluoromethyl)-2-(1-hydroxycyclopropyl)oxazol-5-yl)(4-(4-methylpyrazolo[1,5-a]pyridin-2-yl)-6,7-dihydro-1H-imidazo[4,5-c]pyridin-5(4H)-yl)methanone]",< 500
28,"Cn1cc(-c2nnc(C(=O)N3CCc4[nH]cnc4[C@H]3c3cc4cccc(F)n4n3)o2)cn1 [Example 1224, (S)-(4-(7-fluoropyrazolo[1,5-a]pyridin-2-yl)-6,7-dihydro-1H-imidazo[4,5-c]pyridin-5(4H)-yl)(5-(1-methyl-1H-pyrazol-4-yl)-1,3,4-oxadiazol-2-yl) methanone]",500 to 1000
